# In article PMC3335202 (Journal of Medicinal Chemistry, 2012):
# Read-outs that look alike come from different tables or passages of the source.
# Legend:
# [1] = system: Human embryonic stem cell H9 lines carrying MYH6-mCherry reporters; conditions: cited from earlier work
# [2] = system: Human embryonic stem cell H9 lines carrying MYH6-mCherry reporters; assay: hESC cardiogenesis assay; format: cell-based; conditions: hESCs, dose-response behaviour
# [3] = system: β-catenin-dependent canonical Wnt pathway; assay: Wnt inhibition assay; format: cell-based, human; conditions: for fold less potent in Wnt inhibition: compared with the well-tolerated parent (9/1); for IC50: Wnt inhibition
# [4] = Chemical stability in phosphate buffer; format: physicochemical; conditions: 10 μM, phosphate buffer pH 7.4, up to 30 hours, HPLC
# [5] = Homo sapiens, HEK-293T, HEK293T cells
molecule,measurement,setting,value
Oc1nc(-c2ccc(C(F)(F)F)cc2)nc2c1CSCC2 [Compound 2],fold less potent than 1 and 3 (cardiogenesis),[1]; hESCs,about 1.5 fold
same,maximum efficacious concentration for cardiogenesis,[1]; hESCs,2 µM
same,cell toxicity,HEK293T cells,did not induce cell toxicity
"O=C(Nc1cccc2cccnc12)c1ccc(N2C(=O)[C@@H]3[C@H](C2=O)[C@@H]2C=C[C@H]3C2)cc1 [Compound 1, reference compound]",cell toxicity,HEK293T cells; human,not toxic to HEK293T cells
same,induction of cardiogenesis (class in words),[2],dose-dependent induction of cardiogenesis functional activity
"O=C(Nc1cccc2cccnc12)c1ccc(N2C(=O)C3C(C2=O)[C@H]2CC[C@@H]3O2)cc1 (stereo partly shown) [Compound 39, 4-(Hexahydro-1H-4,7-epoxyisoindole-1,3(2H)-dion-2-yl)-N-(quinolin-8-yl)benzamide]",fold less potent in Wnt inhibition,[3],> 10 fold
same,induction of cardiogenesis (class in words),[2],functionally inactive as inducers of cardiogenesis
"O=C1[C@@H]2[C@@H]3CC[C@@H](C3)[C@@H]2C(=O)N1[C@H]1CC[C@H](C(=O)Nc2cccnc2)CC1 [Compound 32, 4-(cis-endo-(1,3-Dioxooctahydro-2H-4,7-methanoisoindol-2-yl))-N-(pyridin-3-yl)-trans-cyclohexyl carboxamide]",IC50,[3]; [5],~100 nM
same,induction of cardiogenesis (class in words),[2],functionally inactive as inducers of cardiogenesis
same,degradation in phosphate buffer,[4],No degradation was observed
"O=C(Nc1cccc2cccnc12)c1ccc(N2C(=O)[C@@H]3[C@H]4CC[C@H](CC4)[C@@H]3C2=O)cc1 [Compound 37, 4-cis-endo-(Hexahydro-1H-4,7-ethanoisoindole-1,3(2H)-dion-2-yl)-N-(quinolin-8-yl) benzamide]",IC50,[3]; [5],> 200 nM
same,fold less potent in Wnt inhibition,[3],> 10 fold
same,induction of cardiogenesis (class in words),[2],functionally inactive as inducers of cardiogenesis
COc1ccc(/C=C2/SC(=S)N(CCCC(=O)O)C2=O)cc1OC [Compound 4],cardiogenic activity (in words),[1]; at 50 μM,weakly cardiogenic
"N-[4-((3aR,4S,7R,7aS)-1,3,3a,4,7,7a-Hexahydro-1,3-dioxo-4,7-methano-2H-isoindol-2-yl)phenyl]-quinoline-8-carboxamide [Compound 52]",% inhibition (1 μM),"[3]; Wnt inhibition at 1 μM, HEK293T cells",91 ± 1%
same,IC50,[3]; HEK293T cells,119 ± 9 nM
same,induction of cardiogenesis (class in words),[2],functionally inactive as inducers of cardiogenesis
Cc1ccc2nc(NC(=O)CSc3nc4c(c(=O)n3-c3ccc(F)cc3)SCC4)sc2c1 [Compound 3],maximum efficacious concentration for cardiogenesis,[1]; hESCs,2.5 µM
"CC(=O)c1ccccc1NC(=O)[C@H]1CC[C@H](N2C(=O)[C@@H]3[C@@H]4CC[C@@H](C4)[C@@H]3C2=O)CC1 [Compound 28, 4-(cis-endo-1,3-Dioxooctahydro-2H-4,7-methanoisoindol-2-yl)-N-(2-acetylphenyl)-trans-cyclohexyl carboxamide]",induction of cardiogenesis (class in words),[2],potent stimulators of cardiogenesis
same,degradation in phosphate buffer,[4],No degradation was observed
"O=C1[C@@H]2[C@@H]3CC[C@@H](C3)[C@@H]2C(=O)N1[C@H]1CC[C@H](C(=O)Nc2ccccn2)CC1 [Compound 31, 4-(cis-endo-(1,3-Dioxooctahydro-2H-4,7-methanoisoindol-2-yl))-N-(pyridin-2-yl)-trans-cyclohexyl carboxamide]",IC50,[3]; [5],~100 nM
same,induction of cardiogenesis (class in words),[2],functionally inactive as inducers of cardiogenesis
